# Results reported in patent publication US20240077481A1, “IMPROVED TREATMENT METHODS USING DMDS FOR THE TREATMENT OF AUTOIMMUNE DISEASES, AND BIOMARKER FOR PREDICTING AND/OR OPTIMISING SAID TREATMENT METHODS” (ARES TRADING S.A., priority 2021, published 2024).
# Key:
# [1] = test system: Memory B cells; assay: MAGNIFY-MS peripheral blood immunophenotyping (flow cytometry); format: in vivo, human; conditions: month 1-12
# [2] = test system: plasmablast/cells; assay: Sustained decrease of plasmablast/cells under Cladribine treatment; format: in vivo, human; conditions: month 3-12
# From the text: According to the instant invention, it is preferably shown that treatment of said autoimmune diseases with DMDs, preferably the treatment of MS with said DMDs and especially treatment of MS with Cladribine, in an individual induces a sustained decrease of pathological memory B cells and plasmablast/cells (>−70% and >−50% from baseline respectively) from month 1-12 and month 3-12 respectively. Repopulation of these cells resulting in a increase of numbers of memory B cells and Plasma cells to <−40% and −20% respectively will illustrate a loss of efficacy serving as a retreatment marker.
# [3] = test system: plasma cells signatures; assay: Immune deconvolution signatures, CLARITY phase 3, 96 weeks; format: in vivo, human; conditions: 96 weeks after first cladribine treatment
# From the text: Plasma cell signatures have weak positive, but significant, correlation with: MACT2 (Mean Active T2 Lesions), CACT2 (Cumulative Active T2 lesions), MRCULES (Mean CU Lesions), MNT1GEL (Mean New T1 Gd+ Lesions). The results are illustrated in FIG. 9.
# [4] = test system: plasma cell numbers in the blood; assay: Plasma cell response in MS patients vaccinated with Shingrix before cladribine treatment; format: in vivo, human; conditions: MS patients vaccinated twice with Shingrix, second dose 1 week before start of cladribine
# From the text: According to the instant invention, it is preferably shown that treatment of treatment of MS with Cladribine, in an individual, reduces short lived plasmablasts and CD38^+ plasma cells and the direct effect on these plasma cell subpopulations is further supported by blood data from MS patients vaccinated twice with the Shingrix vaccine before the start of treatment with the DMD Cladribine. After the second Shingrix dose given 1 week before said start of cladribine treatment, the patient raised an acute plasma cell response, and increased plasma cell numbers in the blood to the MS patient were reduced by cladribine treatment (cite vaccination patent). These findings indicate that Cladribine is able to directly affect and reduce plasmablasts and CD38+ plasma cells which are associated with disease pathology by means of autoantibody production and direct cellular toxicity, especially when occurring within the cerebrospinal fluid. What we found in MS is also important for other diseases. There are a variety of AI & Neuroinflammatory diseases where potentially plasma cells/plasmablasts are involved in the disease activity and disease course which we deem to benefit from a treatment directly acting on plasma cells, preferably cladribine treatment. […]
# [5] = CLARITY extension, five patient groups, 3.5 mg/kg or placebo after CLARITY; cited from earlier work
# [6] = test system: B cell; conditions: followed by a period of repopulation (Wiendl et al., 2020); cited from earlier work
# [7] = test system: CD4^+ T cell; conditions: followed by a period of repopulation (Wiendl et al., 2020); cited from earlier work
# [8] = test system: CD8^+ T cell; conditions: followed by a period of repopulation (Wiendl et al., 2020); cited from earlier work
# [9] = test system: CD27+ memory B cells; conditions: those with NMOSDs; cited from earlier work
# [10] = test system: CD24hiCD38hi TrB cells; conditions: those with NMOSDs; cited from earlier work
# [11] = test system: CD19^+ cell; conditions: Montalban et al., 2016; cited from earlier work
molecule,measurement,setting,value
Nc1nc(Cl)nc2c1ncn2[C@H]1C[C@H](O)[C@@H](CO)O1 [Cladribine],Sustained decrease of pathological memory B cells from baseline,[1],> −70%
same,Sustained decrease of plasmablast/cells from baseline,[2],> −50%
same,Ratio in plasma cells signatures vs untreated control,[3],decreased ratio
same,Increased plasma cell numbers in the blood after second Shingrix dose,[4],reduced
same,Relapse rates and disability between all groups,[5],not significantly different
Alemtuzumab: other disease-modifying therapy compared in the discussion,B cell counts,[6],decrease
same,CD4^+ T cell counts,[7],decrease
same,CD8^+ T cell counts,[8],decrease
Rituximab: anti-CD20 therapy targeting B cells,number of CD27+ memory B cells,[9],lowered
same,number of CD24hiCD38hi TrB cells,[10],increased
ocrelizumab: anti-CD20 therapy targeting B cells,Time of reductions in CD19^+ cell counts after treatment (as early as),[11],2 weeks
